Measurements reported in ChEMBL document CHEMBL1131086, “Synthesis and biological activity of conformationally restricted analogues of milnacipran: (1S, 2R)-1-phenyl-2-[(R)-1-amino-2-propynyl]-N,N- diethylcyclopropanecarboxamide is a novel class of NMDA receptor channel blocker” (J Med Chem, 1998).

Assays:
Glutamate NMDA receptor = target: Glutamate NMDA receptor; set-up: species or system Rattus norvegicus
Description: Inhibition of [3H]MK-801 binding to N-methyl-D-aspartate glutamate receptor of rat cerebral cortical synaptic membrane

[1] = target: Sodium-dependent serotonin transporter (Rattus norvegicus, UniProt P31652); test: Inhibition of Serotonin transporter in cerebral cortical synaptic membrane of rats using [3H]paroxetine
Sequence of Sodium-dependent serotonin transporter (P31652 whole entry): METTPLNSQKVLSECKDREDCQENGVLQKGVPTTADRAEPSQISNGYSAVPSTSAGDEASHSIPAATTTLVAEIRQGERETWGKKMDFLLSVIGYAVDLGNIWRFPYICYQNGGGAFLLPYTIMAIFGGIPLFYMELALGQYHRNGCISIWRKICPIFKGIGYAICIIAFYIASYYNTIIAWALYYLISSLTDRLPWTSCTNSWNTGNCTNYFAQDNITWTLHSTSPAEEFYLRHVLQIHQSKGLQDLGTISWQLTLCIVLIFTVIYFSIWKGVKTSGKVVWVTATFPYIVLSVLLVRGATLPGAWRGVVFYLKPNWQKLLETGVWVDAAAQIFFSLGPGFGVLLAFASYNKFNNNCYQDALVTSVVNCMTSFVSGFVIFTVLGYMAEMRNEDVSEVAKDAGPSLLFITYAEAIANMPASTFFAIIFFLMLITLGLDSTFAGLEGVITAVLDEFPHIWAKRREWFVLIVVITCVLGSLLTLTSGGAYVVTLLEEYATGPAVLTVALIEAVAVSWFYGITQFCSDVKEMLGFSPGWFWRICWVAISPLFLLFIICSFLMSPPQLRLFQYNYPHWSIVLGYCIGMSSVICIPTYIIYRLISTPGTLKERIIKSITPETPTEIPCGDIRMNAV

[2] = target: T1, 5-hydroxytryptamine receptor 2C (Rattus norvegicus) (UniProt P08909); test: Compound tested for relative response using 0.1 uM 5-HT as agonist against 5-hydroxytryptamine 2C receptor; format: functional
T1 sequence (whole entry): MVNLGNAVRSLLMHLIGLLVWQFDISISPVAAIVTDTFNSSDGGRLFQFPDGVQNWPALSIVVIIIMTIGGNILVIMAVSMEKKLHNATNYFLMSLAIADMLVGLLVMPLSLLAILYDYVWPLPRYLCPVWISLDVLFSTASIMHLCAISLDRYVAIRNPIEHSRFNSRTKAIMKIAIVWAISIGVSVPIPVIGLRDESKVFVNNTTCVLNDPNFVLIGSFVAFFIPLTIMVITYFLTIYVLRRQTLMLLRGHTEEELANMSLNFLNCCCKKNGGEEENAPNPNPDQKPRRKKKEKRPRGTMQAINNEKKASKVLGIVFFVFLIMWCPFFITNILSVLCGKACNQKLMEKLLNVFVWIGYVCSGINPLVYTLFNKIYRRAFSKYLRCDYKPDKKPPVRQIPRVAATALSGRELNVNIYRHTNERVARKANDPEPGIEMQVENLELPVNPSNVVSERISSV

[3] = target: Glutamate receptor ionotropic, kainate (Rattus norvegicus) (UniProt P22756+Q01812+P42260+P42264+Q63273); test: Compound tested for relative response using 30 uM kainate as agonist against Ionotropic glutamate receptor kainate; format: functional
[4] = target: T2, Muscarinic acetylcholine receptor M1 (Rattus norvegicus) (UniProt P08482); test: Compound tested for relative response using 1 uM ACh as agonist against AChM1 receptor.; format: functional
T2 sequence (whole entry): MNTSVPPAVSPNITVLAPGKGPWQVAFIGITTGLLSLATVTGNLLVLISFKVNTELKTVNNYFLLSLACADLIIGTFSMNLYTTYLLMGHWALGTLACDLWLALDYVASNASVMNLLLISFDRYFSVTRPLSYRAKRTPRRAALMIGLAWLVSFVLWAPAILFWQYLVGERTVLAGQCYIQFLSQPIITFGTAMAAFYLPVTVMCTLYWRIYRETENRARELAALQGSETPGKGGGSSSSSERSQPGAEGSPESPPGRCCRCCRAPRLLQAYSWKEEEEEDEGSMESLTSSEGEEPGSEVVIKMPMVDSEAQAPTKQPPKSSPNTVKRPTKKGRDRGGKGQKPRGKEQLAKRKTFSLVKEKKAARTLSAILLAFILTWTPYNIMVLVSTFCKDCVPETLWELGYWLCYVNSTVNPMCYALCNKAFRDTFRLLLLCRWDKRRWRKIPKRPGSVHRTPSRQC

[5] = target: Glutamate receptor ionotropic, NMDA 1 (Rattus norvegicus) (UniProt P35439); test: Compound tested for relative response using 30 uM NMDA+10 uM glycine as agonist against N-methyl-D-aspartate glutamate receptor 1; format: functional
[6] = target: GABA-A receptor; anion channel (Rattus norvegicus) (UniProt O09028+P15431+P18506+P18508+P19969+P20236+P23574+P23576+P28471+P28473+P30191+P62813+P63079+P63138+Q91ZM7+Q9ES14); test: Compound tested for relative response using 30 uM GABA as agonist against Gamma-aminobutyric acid A receptor; format: functional
[7] = target: Glutamate receptor ionotropic, AMPA (Rattus norvegicus) (UniProt P19491+P19492+P19493+P19490); test: Compound tested for relative response using 10 uM AMPA as agonist against Ionotropic glutamate receptor AMPA; format: functional

Structure (SMILES) | IC50 (Glutamate NMDA receptor) [µM] | Ki [1] [µM] | also measured
CCN(CC)C(=O)[C@@]1(c2ccccc2)C[C@H]1C(N)C(=O)O (some centres undefined) | > 100 | > 100 | –
C#CC(N)[C@@H]1C[C@@]1(C(=O)N(CC)CC)c1ccccc1 (stereo in doubt; 2d) [listing 2 of 2 here] | – | – | Relative response [2]: 100%; Relative response [3]: 96.9%; Relative response [4]: 102%; Relative response [5]: 32.1%; Relative response [6]: 99.6%; Relative response [7]: 100%
CCN(CC)C(=O)[C@@]1(c2ccccc2)C[C@H]1C(N)C#N (stereo in doubt; 3e) | > 100 | – | –

Continued, in another order:

IC50 (Glutamate NMDA receptor) [µM] | Ki [1] [µM] | Structure (SMILES) | also measured
> 100 | 25 | CCN(CC)C(=O)[C@@]1(c2ccccc2)C[C@H]1C(N)C(=O)OC (some centres undefined) | –
27 | > 100 | CCN(CC)C(=O)[C@@]1(c2ccccc2)C[C@H]1C(N)C(N)=O (some centres undefined) | –
0.29 | 0.19 | C#CC(N)[C@@H]1C[C@@]1(C(=O)N(CC)CC)c1ccccc1 (stereo in doubt; 2d) [listing 1 of 2 here] | –
96 | > 100 | CCN(CC)C(=O)[C@@]1(c2ccccc2)C[C@H]1C(N)C#N (stereo in doubt; 2e) | –
16 | 15 | C#CC(N)[C@@H]1C[C@@]1(C(=O)N(CC)CC)c1ccccc1 (stereo in doubt; 3d) | –
